Assay results published in patent US9145354B2, “Pharmaceutical compounds” (priority 2011, dated 2015).
Read-outs that look alike come from different tables or passages of the source.

Target: full length NS3/4a (Hepatitis C virus genotype 1b (isolate BK) (HCV), UniProt P26663)
Assay: NS3 Protease Assay (Example A), FRET-based
Type: biochemical
Outline: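 Full-length NS3/4a, made in-house, with an NS4A/B-derived peptide substrate carrying QXL520 quencher and 5-FAMsp fluorophore. Buffer 50 mM Tris pH8, 20 mM DTT, 1% CHAPS, 10% glycerol, 5% DMSO. Fluorescence followed 30 min at room temperature; IC50 from initial rates of replicate curves.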

[1] = HCV NS3 protease assay, full length NS3/4a, read-out: Assay A IC50 (μM) average
[2] = read-out: IC50 against the protease activity of the full length NS3/4a
[3] = stated as IC50 less than 30 μM or at least 40% inhibition at a concentration of 100 μM, read-out: IC50 against the protease activity of the full length NS3/4a

full length NS3/4a, sequence (P26663 1027-1657): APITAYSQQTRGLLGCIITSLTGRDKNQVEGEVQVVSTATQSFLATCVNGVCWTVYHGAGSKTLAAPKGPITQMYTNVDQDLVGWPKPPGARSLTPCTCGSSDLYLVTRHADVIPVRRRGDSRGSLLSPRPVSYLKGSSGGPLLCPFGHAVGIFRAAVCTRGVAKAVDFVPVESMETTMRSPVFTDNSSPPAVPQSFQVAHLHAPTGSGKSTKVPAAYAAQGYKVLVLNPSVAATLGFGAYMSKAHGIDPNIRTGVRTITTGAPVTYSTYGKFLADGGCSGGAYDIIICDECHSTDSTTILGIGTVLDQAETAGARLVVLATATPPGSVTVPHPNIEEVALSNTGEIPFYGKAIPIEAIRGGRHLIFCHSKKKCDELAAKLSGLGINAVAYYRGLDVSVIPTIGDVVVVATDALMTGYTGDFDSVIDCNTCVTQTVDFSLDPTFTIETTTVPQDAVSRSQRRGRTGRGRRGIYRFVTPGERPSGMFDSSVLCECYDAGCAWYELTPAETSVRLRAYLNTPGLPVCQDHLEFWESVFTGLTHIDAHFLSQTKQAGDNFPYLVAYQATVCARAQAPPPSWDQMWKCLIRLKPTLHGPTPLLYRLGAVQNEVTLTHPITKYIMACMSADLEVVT

`COc1ccc([C@H](N)C2CC2)c(F)c1C(=O)c1ccc(F)cc1` [Example 196, (R)-cyclopropyl({2-fluoro-3-[(4-fluorophenyl)carbonyl]-4-methoxyphenyl})methanamine] gave an IC50 [1] of 2.3 µM and an IC50 [2] of 1 to 5 µM.
With `CC[C@@H](N)c1ccc(Cl)c(C(=O)c2ccc(N)nn2)c1F` [Example 197, 6-({3-[(1R)-1-Aminopropyl]-6-chloro-2-fluorophenyl}carbonyl)pyridazin-3-amine] the inhibition at 10 µM was 45% and the IC50 [3] was less than 30 µM.
`CC[C@@H](N)c1ccc(OC)c(C(=O)c2cccc(F)c2)c1F` [Example 198, (1R)-1-{2-fluoro-3-[(3-fluorophenyl)carbonyl]-4-methoxyphenyl}propan-1-amine] was tested, and the IC50 [1] was 2.4 µM and the IC50 [2] was 1 to 5 µM.
`CC[C@@H](N[C@H](C)CC(N)=O)c1ccc(OC)c(C(=O)c2ccc(F)cc2)c1F` [Example 199, (3R)-3-{[(1R)-1-{2-fluoro-3-[(4-fluorophenyl)carbonyl]-4-methoxyphenyl}propyl]amino}butanamide] was tested, and the inhibition at 100 µM (@ 100 uM) was 32%.
For `CC[C@@H](N[C@@H](C)CC(N)=O)c1ccc(OC)c(C(=O)c2ccc(F)cc2)c1F` [Example 200, (3S)-3-{[(1R)-1-{2-fluoro-3-[(4-fluorophenyl)carbonyl]-4-methoxyphenyl}propyl]amino} butanamide], the IC50 [1] was 0.078 µM and the IC50 [2] was less than 1 µM.
Compound `COc1ccc([C@H](N)C2CC2)c(F)c1C(=O)c1cccc(F)c1` [Example 201, (R)-cyclopropyl({2-fluoro-3-[(3-fluorophenyl)carbonyl]-4-methoxyphenyl})methanamine] has an IC50 [1] of 3 µM and an IC50 [2] of 1 to 5 µM.
`C[C@H](CC(N)=O)N[C@@H](c1ccc(Cl)c(C(=O)c2ccc(N)c(Cl)c2)c1F)C1CC1` [Example 202, (3R)-3-{[(R)-{3-[(4-amino-3-chlorophenyl)carbonyl]-4-chloro-2-fluorophenyl}(cyclopropyl)methyl]amino}butanamide] showed an IC50 [1] of 0.31 µM.
In the case of `Cc1cc(C(=O)c2c(Cl)ccc([C@H](N[C@H](C)CC(N)=O)C3CC3)c2F)ccc1N` [Example 203, (3R)-3-{[(R)-{3-[(4-amino-3-methylphenyl)carbonyl]-4-chloro-2-fluorophenyl}(cyclopropyl)methyl]amino}butanamide], the IC50 [1] is reported as 0.27 µM.
Compound `CC[C@@H](N)c1ccc(Cl)c(C(=O)c2cccc(O)c2)c1F` [Example 204, 3-({3-[(1R)-1-aminopropyl]-6-chloro-2-fluorophenyl}-carbonyl)phenol] has an IC50 [1] of 0.17 µM.
`CC[C@@H](N[C@@H](C)CC(N)=O)c1ccc(Cl)c(C(=O)c2ccnc(N)c2)c1F` [Example 205, (3S)-3-{[(1R)-1-{3-[(2-aminopyridin-4-yl)carbonyl]-4-chloro-2-fluorophenyl}propyl]amino} butanamide] showed an IC50 [1] of 0.19 µM.
In the case of `CC[C@@H](N[C@H](C)CC(N)=O)c1ccc(Cl)c(C(=O)c2ccnc(N)c2)c1F` [Example 206, (3R)-3-{[(1R)-1-{3-[(2-aminopyridin-4-yl)carbonyl]-4-chloro-2-fluorophenyl}propyl]amino}butanamide], the IC50 [1] is reported as 1.2 µM and the IC50 [2] is reported as 1 to 5 µM.
With `CC[C@@H](N[C@@H](C)CC(N)=O)c1ccc(Cl)c(C(=O)c2ccc(NC)nc2)c1F` [Example 207, (3S)-3-{[(1R)-1-(4-chloro-2-fluoro-3-{[6-(methylamino)pyridin-3-yl]carbonyl}phenyl)propyl]amino}butanamide] the IC50 [1] was 0.37 µM and the IC50 [2] was less than 1 µM.
Compound `CC[C@@H](N[C@H](C)CC(N)=O)c1ccc(Cl)c(C(=O)c2ccc(NC)nc2)c1F` [Example 208, (3R)-3-{[(1R)-1-(4-chloro-2-fluoro-3-{[6-(methylamino)pyridin-3-yl]carbonyl}phenyl)propyl]amino}butanamide] has an IC50 [1] of 3.1 µM and an IC50 [2] of 1 to 5 µM.
In the case of `COc1ccc([C@H](N[C@H](C)CC(N)=O)C2CC2)c(F)c1C(=O)c1ccc(F)cc1` [Example 209, (3R)-3-{[(R)-cyclopropyl({2-fluoro-3-[(4-fluorophenyl)carbonyl]-4-methoxyphenyl})methyl]amino}butanamide], the IC50 [1] is reported as 2.7 µM and the IC50 [2] is reported as 1 to 5 µM.
With `COc1ccc([C@H](N[C@@H](C)CC(N)=O)C2CC2)c(F)c1C(=O)c1ccc(F)cc1` [Example 210, (3S)-3-{[(R)-cyclopropyl({2-fluoro-3-[(4-fluorophenyl)carbonyl]-4-methoxyphenyl})methyl]amino} butanamide] the IC50 [1] was 0.098 µM and the IC50 [2] was less than 1 µM.
`CC[C@@H](N[C@H](C)CC(N)=O)c1ccc(OC)c(C(=O)c2cccc(F)c2)c1F` [Example 211, (3R)-3-{[(1R)-1-{2-fluoro-3-[(3-fluorophenyl)carbonyl]-4-methoxyphenyl}propyl]amino}butanamide] was tested, and the inhibition at 1 µM was 47% and the IC50 [2] was 1 to 5 µM.
In the case of `CC[C@@H](N[C@@H](C)CC(N)=O)c1ccc(OC)c(C(=O)c2cccc(F)c2)c1F` [Example 212, (3S)-3-{[(1R)-1-{2-fluoro-3-[(3-fluorophenyl)carbonyl]-4-methoxyphenyl}propyl]amino}butanamide], the IC50 [1] is reported as 0.094 µM.
For `CC[C@@H](N[C@@H](C)CC(N)=O)c1ccc(Cl)c(C(=O)c2ccc(N)c(C#N)c2)c1F` [Example 213, (3S)-3-{[(1R)-1-{3-[(4-amino-3-cyanophenyl)carbonyl]-4-chloro-2-fluorophenyl}propyl]amino} butanamide], the IC50 [1] was 0.35 µM.
`CC[C@@H](N)c1ccc(Cl)c(C(=O)c2ccc(Cl)nn2)c1F` [Example 214, (1R)-1-{4-chloro-3-[(6-chloropyridazin-3-yl)carbonyl]-2-fluorophenyl}propan-1-amine] was tested, and the inhibition at 10 µM was 51% and the IC50 [3] was less than 30 µM.
Compound `CC[C@@H](N[C@@H](C)CC(N)=O)c1ccc(Cl)c(C(=O)c2ccc(OC)c(C#N)c2)c1F` [Example 215, (3S)-3-{[(1R)-1-{4-chloro-3-[(3-cyano-4-methoxyphenyl)carbonyl]-2-fluorophenyl}propyl]amino} butanamide] has an IC50 [1] of 1.2 µM and an IC50 [2] of 1 to 5 µM.
Compound `CC[C@@H](N[C@H](C)CC(N)=O)c1ccc(Cl)c(C(=O)c2ccc(N)c(C#N)c2)c1F` [Example 216, (3R)-3-{[(1R)-1-{3-[(4-amino-3-cyanophenyl)carbonyl]-4-chloro-2-fluorophenyl}propyl]amino} butanamide] has an IC50 [1] of 0.48 µM and an IC50 [2] of less than 1 µM.
Compound `CC[C@@H](N[C@H](C)CC(N)=O)c1ccc(Cl)c(C(=O)c2ccc(OC)c(C#N)c2)c1F` [Example 217, (3R)-3-{[(1R)-1-{4-chloro-3-[(3-cyano-4-methoxyphenyl)carbonyl]-2-fluorophenyl}propyl]amino}butanamide] has an inhibition at 30 µM (@ 30 uM) of 38%.
In the case of `CC[C@@H](N[C@@H](CC(N)=O)C(C)C)c1ccc(Cl)c(C(=O)c2ccc(N)nc2)c1F` [Example 218, (3S)-3-{[(1R)-1-{3-[(6-aminopyridin-3-yl)carbonyl]-4-chloro-2-fluorophenyl}propyl]amino}-4-methylpentanamide], the inhibition at 1 µM is reported as 42% and the IC50 [2] is reported as 1 to 5 µM.
For `CC[C@@H](N[C@H](CC(N)=O)C(C)C)c1ccc(Cl)c(C(=O)c2ccc(N)nc2)c1F` [Example 219, (3R)-3-{[(1R)-1-{3-[(6-aminopyridin-3-yl)carbonyI]-4-chloro-2-fluorophenyl}propyl]amino}-4-methylpentanamide], the IC50 [1] was 7.5 µM and the IC50 [3] was less than 30 µM.
`[2H]C([2H])([2H])C([2H])([2H])[C@@H](N[C@H](C)CC(N)=O)c1ccc(Cl)c(C(=O)c2ccc(N)c(Cl)c2)c1F` [Example 220, (3R)-3-{[(1R)-1-{3-[(4-amino-3-chlorophenyl)carbonyl]-4-chloro-2-fluorophenyl}(2,2,3,3,3-deutero)propyl]amino} butanamide] gave an IC50 [1] of 0.26 µM.
Work on `[2H]C([2H])([2H])C([2H])([2H])[C@@H](N[C@H](C)CC(N)=O)c1ccc(Cl)c(C(=O)c2ccc(N)c(C)c2)c1F` [Example 221, (3R)-3-{[(1R)-1-{3-[(4-amino-3-methylphenyl)carbonyl]-4-chloro-2-fluorophenyl}(2,2,3,3,3-deutero)propyl]amino} butanamide] yielded an IC50 [1] of 0.36 µM.
`CC[C@@H](N)c1ccc(Cl)c(C(=O)c2ccc(C#N)c(OC)c2)c1F` [Example 222, 4-({3-[(1R)-1-aminopropyl]-6-chloro-2-fluorophenyl}carbonyl)-2-methoxybenzonitrile] was tested, and the inhibition at 0.03 µM (@ 0.03 uM) was 45% and the IC50 [3] was less than 30 µM.
`COc1ccc([C@H](N[C@H](C)CC(N)=O)C2CC2)c(F)c1C(=O)c1cccc(F)c1` [Example 223, (3R)-3-{[(R)-cyclopropyl({2-fluoro-3-[(3-fluorophenyl)carbonyl]-4-methoxyphenyl})methyl]amino}butanamide] was tested, and the IC50 [1] was 3.1 µM and the IC50 [2] was 1 to 5 µM.
With `CC[C@H](CC(N)=O)N[C@H](CC)c1ccc(Cl)c(C(=O)c2ccc(N)nc2)c1F` [Example 226, (3R)-3-{[(1R)-1-{3-[(6-aminopyridin-3-yl)carbonyl]-4-chloro-2-fluorophenyl}propyl]amino}pentanamide] the IC50 [1] was 1.1 µM and the IC50 [2] was 1 to 5 µM.
In the case of `CC[C@@H](N[C@H](C)CC(N)=O)c1ccc(Cl)c(C(=O)c2cccc(O)c2)c1F` [Example 228, (3R)-3-{[(1R)-1-{4-chloro-2-fluoro-3-[(3-hydroxyphenyl)carbonyl]phenyl}propyl]amino}butanamide], the IC50 [1] is reported as 0.73 µM and the IC50 [2] is reported as less than 1 µM.
`CC[C@@H](N[C@H](C)CC(N)=O)c1ccc(Cl)c(C(=O)c2ccc(O)cc2)c1F` [Example 231, (3R)-3-{[(1R)-1-{4-chloro-2-fluoro-3-[(4-hydroxyphenyl)carbonyl]phenyl}propyl]amino}butanamide] gave an IC50 [1] of 2.1 µM and an IC50 [2] of 1 to 5 µM.
`CC[C@@H](N[C@H](C)CC(N)=O)c1ccc(Cl)c(C(=O)c2ccc(N)nn2)c1F` [Example 233, (3R)-3-{[(1R)-1-{3-[(6-aminopyridazin-3-yl)carbonyl]-4-chloro-2-fluorophenyl}propyl]amino}butanamide] gave an inhibition at 10 µM of 40% and an IC50 [3] of less than 30 µM.
